Test results: EP1401829B1, “NOVEL HETEROCYCLIC ANTIBACTERIAL COMPOUNDS” (Microbiotix, Inc., priority 2001, dated 2002)
Marks after values point to notes of the source that are not given here.

Key:
VRE 700802 = assay: In vivo efficacy of Compound 70 in mouse models; set-up: species or system Enterococcus faecalis; settings: mice, 3x10^8 CFU/mouse + 5% Mucin
Procedure: (§1) Swiss Webster mice, ca. 20 g each, were infected with Staphylococcus aureus (Smith strain) by the intraperitoneal route. Test compounds (2, 4, 5, 6, 7, 8, 10, 12) were dissolved in 10% dimethylsulfoxide in peanut oil to a concentration of 2 mg/ml. Vancomycin was used as positive control drug (i.e., protection from lethal infection). Fifteen minutes after infection, test compounds, vancomycin, or vehicle alone were given intraperitoneally to groups of five mice each. Animals were monitored for three days, and the number of mice surviving was tabulated for each treatment.
(§2) Using the same basic procedure as described above, the in vivo efficacy of Compound 70 was also evaluated at various doses in mice infected with S. aureaus (Smith), MRSA 1094, Enterococcus faecalis, or vancomycin-resistant Enterococcus faecalis strain VRE 700802. […] Negative controls were mice infected that received no treatment. Mucin was employed as an adjuvant to facilitate bacterial infection in mice, where indicated.

MRSA 1094 = assay: In vivo efficacy of Compound 70 in mouse models; set-up: species or system Staphylococcus aureus; settings: mice, 10^7 CFU/mouse + 5% Mucin, regimen 2 (t=0,2)
Procedure: as §1, §2

[1] = Overt toxicity observed in mouse infection models; format: in vivo; settings: mice; at therapeutic doses (doses providing survival above no treatment control)
Procedure: as §2

[2] = test system: enterococci or staphylococci strains, including MRSA and VRE strains; assay: In vivo efficacy of Compound 70 in mouse models, overall statement; settings: mice; administration from distant parenteral sites (i.e., iv, sc, or im)
Procedure: as §2

[3] = dose 50 mg/kg, regimen 2 (t=0,2)
[4] = dose 50 mg/kg, regimen 2 (t=0,3)
[5] = dose 75 mg/kg, regimen 2 (t=0,2-)
[6] = dose 75 mg/kg, regimen 2 (t=0,3)
[7] = dose 100 mg/kg, regimen 1 (t=0)

CCc1cc(Nc2cc(=O)n(CCCCN3CCN(c4c(F)cc5c(=O)c(C(=O)O)cn(C6CC6)c5c4F)CC3C)c(=O)[nH]2)ccc1C (stereo not drawn) [Compound 70, 3-{4-[1-(1-cyclopropyl-3-carboxy-4-oxo-6,8-difluoro-7-quinolyl)-3-methyl-4-piperazinyl]butyl}-6-(3-ethyl-4-methylanilino)uracil]
% Survival at 72 hours (VRE 700802; [3]): 10% (1/10) | Mean Survival Time (VRE 700802; [3]): 45 h | % Survival at 72 hours (VRE 700802; [4]): 0% (0/5) | Mean Survival Time (VRE 700802; [4]): 35 h | % Survival at 72 hours (VRE 700802; [5]): 0% (0/5) | Mean Survival Time (VRE 700802; [5]): 50 h | % Survival at 72 hours (VRE 700802; [6]): 40% (2/5) | Mean Survival Time (VRE 700802; [6]): 50 h | % Survival at 72 hours (VRE 700802; [7]): 0% (0/5) | Mean Survival Time (VRE 700802; [7]): 34 h | % Survival at 72 hours (MRSA 1094; dose 25 mg/kg): 0% (0/5) | % Survival at 72 hours (MRSA 1094; dose 50 mg/kg): 55% (11/20)* | % Survival at 72 hours (MRSA 1094; dose 75 mg/kg): 80% (4/5) | overt toxicity [1]: no overt toxicity | activity against intra-peritoneal challenge [2]: dose-related activity
